Measured values from PubChem BioAssay (NCI).
Where “and” joins values, the source holds several entries; their conditions need not be identical. Equal values may be shown once.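 Grown in 96-well plates, cells were treated for 48 hours with each compound at five concentrations. Insufficient inhibition: endpoint recorded as highest concentration tested. At the GI50, growth is halved. TGI: concentration producing complete growth inhibition.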

How the values were obtained:
Assay in all cases: DTP human tumour cell line panel, 48 h
SF-268 CNS = tested on: SF-268 CNS
PC-3 prostate = tested on: PC-3 prostate
NCI-H226 lung = tested on: NCI-H226 lung
KM12 colon = tested on: KM12 colon
HCC-2998 colon = tested on: HCC-2998 colon
HT29 colon = tested on: HT29 colon
MCF7 breast = tested on: MCF7 breast
UO-31 renal = tested on: UO-31 renal
SF-295 CNS = tested on: SF-295 CNS
HCT-116 colon = tested on: HCT-116 colon

O=C1C(=O)c2cc([N+](=O)[O-])ccc2-c2ccccc21
GI50 (SF-268 CNS): 1.29 µM | TGI (SF-268 CNS): 2.62 µM | GI50 (PC-3 prostate): 1.97 µM | TGI (PC-3 prostate): 3.72 µM | GI50 (NCI-H226 lung): 1.78 µM | TGI (NCI-H226 lung): 3.27 µM | GI50 (KM12 colon): 1.79 µM | TGI (KM12 colon): 3.23 µM | GI50 (HCC-2998 colon): 1.77 µM | TGI (HCC-2998 colon): 3.18 µM | GI50 (HT29 colon): 1.95 µM | TGI (HT29 colon): 3.9 µM | GI50 (MCF7 breast): 1.82 µM | TGI (MCF7 breast): 3.64 µM | GI50 (UO-31 renal): 1.45 µM | TGI (UO-31 renal): 2.86 µM | GI50 (SF-295 CNS): 1.86 µM | TGI (SF-295 CNS): 3.48 µM | GI50 (HCT-116 colon): 1.43 µM | TGI (HCT-116 colon): 2.82 µM

CNC(=O)c1ccc(Nc2ncc(C(F)(F)F)c(NCc3nccnc3N(C)S(C)(=O)=O)n2)cc1
GI50 (SF-268 CNS): 2.89 µM and 2.23 µM and 2.73 µM | TGI (SF-268 CNS): > 10 µM and 8.63 µM and 11 µM | GI50 (PC-3 prostate): 3.54 µM and 3.41 µM and 2.85 µM | TGI (PC-3 prostate): > 10 µM and 14.3 µM and 13.2 µM | GI50 (NCI-H226 lung): 1.26 µM and 2.71 µM and 3.28 µM | TGI (NCI-H226 lung): 6.67 µM and 12 µM and 18.2 µM | GI50 (KM12 colon): 0.383 µM and 0.309 µM and 0.307 µM | TGI (KM12 colon): > 10 µM and 6.33 µM and 11.3 µM | GI50 (HCC-2998 colon): 3.68 µM and 2.54 µM and 3.86 µM | TGI (HCC-2998 colon): > 10 µM and 12.9 µM and 18 µM | GI50 (HT29 colon): 3.41 µM and 2.75 µM and 3.21 µM | TGI (HT29 colon): > 10 µM and 8.63 µM and 11.3 µM | GI50 (MCF7 breast): 1.79 µM and 2.16 µM and 1.88 µM | TGI (MCF7 breast): > 10 µM and 9.76 µM and 11.4 µM | GI50 (UO-31 renal): 1.03 µM and 1.94 µM and 2.14 µM | TGI (UO-31 renal): 5.12 µM and 6.97 µM and 8.22 µM | GI50 (SF-295 CNS): 3.04 µM and 2.6 µM and 2.61 µM | TGI (SF-295 CNS): > 10 µM and 10.9 µM and 12.9 µM | GI50 (HCT-116 colon): 2.08 µM and 2.4 µM and 1.71 µM | TGI (HCT-116 colon): > 10 µM and 10.5 µM and 15.1 µM

COc1ccc(C(=O)/C=C/c2cc3ccccc3[nH]c2=O)cc1
GI50 (SF-268 CNS): 18.1 µM | TGI (SF-268 CNS): 43 µM | GI50 (PC-3 prostate): > 59.7 µM | TGI (PC-3 prostate): > 100 µM | GI50 (NCI-H226 lung): 22.1 µM | TGI (NCI-H226 lung): > 100 µM | GI50 (KM12 colon): 16.5 µM | TGI (KM12 colon): 28.7 µM | GI50 (HCC-2998 colon): 17.3 µM | TGI (HCC-2998 colon): 31.3 µM | GI50 (HT29 colon): 19.3 µM | TGI (HT29 colon): > 80.5 µM | GI50 (MCF7 breast): 18.8 µM | TGI (MCF7 breast): > 96.1 µM | GI50 (UO-31 renal): > 100 µM | TGI (UO-31 renal): > 100 µM | GI50 (SF-295 CNS): 20.3 µM | TGI (SF-295 CNS): > 57.1 µM | GI50 (HCT-116 colon): 14.7 µM | TGI (HCT-116 colon): 24.8 µM

CC[C@H](C)c1occ2c(O)c(C(=O)O)c(=O)cc-2c1C
TGI (SF-268 CNS): > 100 µM | TGI (PC-3 prostate): > 100 µM | TGI (NCI-H226 lung): > 100 µM | TGI (KM12 colon): 35.7 µM | TGI (HCC-2998 colon): 36.8 µM | TGI (HT29 colon): 62.3 µM | TGI (MCF7 breast): > 100 µM | TGI (SF-295 CNS): 99.3 µM | TGI (HCT-116 colon): 41.5 µM

CCCCCCN(CCCCCC)C(=N)c1ccnc2ccccc12
GI50 (SF-268 CNS): 13 µM | TGI (SF-268 CNS): 26.5 µM | GI50 (PC-3 prostate): 5.81 µM | TGI (PC-3 prostate): 20.2 µM | GI50 (NCI-H226 lung): 11.8 µM | TGI (NCI-H226 lung): 26.7 µM | GI50 (KM12 colon): 3.95 µM | TGI (KM12 colon): 15.2 µM | GI50 (HCC-2998 colon): 1.78 µM | TGI (HCC-2998 colon): 3.54 µM | GI50 (HT29 colon): 0.835 µM | TGI (HT29 colon): 7.88 µM | GI50 (MCF7 breast): 2.13 µM | TGI (MCF7 breast): 5.53 µM | GI50 (UO-31 renal): 0.708 µM | TGI (UO-31 renal): 13 µM | GI50 (SF-295 CNS): 1.39 µM | TGI (SF-295 CNS): 13.4 µM | GI50 (HCT-116 colon): 1.94 µM | TGI (HCT-116 colon): 14.1 µM

COc1ccc(C(=S)c2cc(OC)c(OC)c(OC)c2)cc1OC(=O)CCl
GI50 (SF-268 CNS): 0.054 µM | TGI (SF-268 CNS): > 100 µM | GI50 (PC-3 prostate): < 0.0172 µM | TGI (PC-3 prostate): > 100 µM | GI50 (NCI-H226 lung): 2.77 µM | TGI (NCI-H226 lung): > 100 µM | GI50 (KM12 colon): < 0.01 µM | TGI (KM12 colon): > 100 µM | GI50 (HCC-2998 colon): 0.0418 µM | TGI (HCC-2998 colon): > 100 µM | GI50 (HT29 colon): 1.99 µM | TGI (HT29 colon): > 100 µM | GI50 (MCF7 breast): < 0.0156 µM | TGI (MCF7 breast): 43.5 µM | GI50 (UO-31 renal): 0.144 µM | TGI (UO-31 renal): > 95.7 µM | GI50 (SF-295 CNS): 0.0356 µM | TGI (SF-295 CNS): > 100 µM | GI50 (HCT-116 colon): < 0.0174 µM | TGI (HCT-116 colon): > 100 µM

Cc1cc(NC(=O)c2ccc(NS(=O)(=O)CCO)cc2N2CCC3(CC2)CC3)nc(N2CCC(F)(F)CC2)n1
GI50 (SF-268 CNS): 13.1 µM | TGI (SF-268 CNS): 29 µM | GI50 (PC-3 prostate): 7.46 µM | TGI (PC-3 prostate): 23.6 µM | GI50 (NCI-H226 lung): 2.09 µM | TGI (NCI-H226 lung): 29.3 µM | GI50 (KM12 colon): 1.7 µM | TGI (KM12 colon): 16.9 µM | GI50 (HCC-2998 colon): 1.53 µM | TGI (HCC-2998 colon): 17.8 µM | GI50 (HT29 colon): 0.0755 µM | TGI (HT29 colon): 14.2 µM | GI50 (MCF7 breast): 8.33 µM | TGI (MCF7 breast): 25.2 µM | GI50 (UO-31 renal): 11.4 µM | TGI (UO-31 renal): 23.8 µM | GI50 (SF-295 CNS): 12.3 µM | TGI (SF-295 CNS): 27.3 µM | GI50 (HCT-116 colon): 11.7 µM | TGI (HCT-116 colon): 26.8 µM

Cc1cc(Cl)ccc1Nc1sc(C(=O)c2cc3cc(Cl)ccc3o2)c(N)c1C#N
TGI (SF-268 CNS): 26.9 µM | TGI (PC-3 prostate): > 100 µM | TGI (NCI-H226 lung): > 100 µM | TGI (KM12 colon): > 100 µM | TGI (HCC-2998 colon): 7.24 µM | TGI (HT29 colon): > 100 µM | TGI (MCF7 breast): 59.6 µM | TGI (UO-31 renal): > 100 µM | TGI (SF-295 CNS): > 100 µM | TGI (HCT-116 colon): > 100 µM

[N-]=[N+]=NC1(N=[N+]=[N-])C(=O)NN=C(c2ccccc2)C1=O (centres undefined)
TGI (SF-268 CNS): 28.4 µM | TGI (PC-3 prostate): > 100 µM | TGI (NCI-H226 lung): > 100 µM | TGI (KM12 colon): > 100 µM | TGI (HCC-2998 colon): > 100 µM | TGI (HT29 colon): > 100 µM | TGI (MCF7 breast): > 100 µM | TGI (UO-31 renal): > 100 µM | TGI (SF-295 CNS): > 100 µM | TGI (HCT-116 colon): 38.7 µM

C#C[C@@]1(O)[C@@H](CO)O[C@@H](n2cc(Cl)c3c(N)ncnc32)[C@@H]1O
GI50 (SF-268 CNS): 0.333 µM | TGI (SF-268 CNS): 21.2 µM | GI50 (PC-3 prostate): 0.191 µM | TGI (PC-3 prostate): 4 µM | GI50 (NCI-H226 lung): 0.508 µM | GI50 (KM12 colon): 0.142 µM | TGI (KM12 colon): > 100 µM | GI50 (HCC-2998 colon): 0.186 µM | TGI (HCC-2998 colon): 0.532 µM | GI50 (HT29 colon): 0.0436 µM | GI50 (MCF7 breast): 0.0264 µM | TGI (MCF7 breast): 1.1 µM | GI50 (UO-31 renal): 0.173 µM | TGI (UO-31 renal): 1.78 µM | GI50 (SF-295 CNS): 0.202 µM | TGI (SF-295 CNS): 3.2 µM | GI50 (HCT-116 colon): 0.0221 µM | TGI (HCT-116 colon): > 100 µM

CCN(Cc1ccc(F)cc1)c1ccc(CO)c(Cl)c1
GI50 (SF-268 CNS): 19.8 µM | TGI (SF-268 CNS): > 55.7 µM | GI50 (PC-3 prostate): 14.3 µM | TGI (PC-3 prostate): 49.4 µM | GI50 (NCI-H226 lung): 0.0306 µM | TGI (NCI-H226 lung): 0.116 µM | GI50 (KM12 colon): 16.3 µM | TGI (KM12 colon): 40.3 µM | GI50 (HCC-2998 colon): 10.3 µM | TGI (HCC-2998 colon): 28.3 µM | GI50 (HT29 colon): 3.02 µM | TGI (HT29 colon): 16.1 µM | GI50 (MCF7 breast): 0.155 µM | TGI (MCF7 breast): 7.05 µM | GI50 (UO-31 renal): 3.02 µM | TGI (UO-31 renal): 31.5 µM | GI50 (SF-295 CNS): 0.714 µM | TGI (SF-295 CNS): 14 µM | GI50 (HCT-116 colon): 0.0661 µM | TGI (HCT-116 colon): 3.02 µM

O=S(=O)(/C=C/C=C/S(=O)(=O)c1ccccc1)c1ccccc1
GI50 (SF-268 CNS): 2.51 µM | TGI (SF-268 CNS): 8.06 µM and 5.4 µM | GI50 (PC-3 prostate): 1.9 µM | TGI (PC-3 prostate): 7.38 µM and 3.98 µM | GI50 (NCI-H226 lung): 1.24 µM | TGI (NCI-H226 lung): 4.85 µM | GI50 (KM12 colon): 11.1 µM | TGI (KM12 colon): 4.25 µM and 23.5 µM | TGI (HCC-2998 colon): 25.1 µM | GI50 (HT29 colon): 1.4 µM | TGI (HT29 colon): 2.69 µM and 2.85 µM | GI50 (MCF7 breast): 0.525 µM | TGI (MCF7 breast): 3.81 µM and 2.3 µM | TGI (UO-31 renal): 2.92 µM and 3.32 µM | TGI (SF-295 CNS): 22.2 µM | GI50 (HCT-116 colon): 0.606 µM | TGI (HCT-116 colon): 2.8 µM and 1.95 µM

COc1ccc(NC(=O)C(=O)C(CC2C(=O)NC(=S)NC2=O)C(=O)c2ccc3ccccc3c2)c([N+](=O)[O-])c1 (centres undefined)
TGI (SF-268 CNS): > 100 µM | TGI (PC-3 prostate): > 100 µM | TGI (NCI-H226 lung): > 100 µM | TGI (KM12 colon): > 100 µM | TGI (HCC-2998 colon): > 100 µM | TGI (HT29 colon): > 100 µM | TGI (MCF7 breast): > 100 µM | TGI (UO-31 renal): > 100 µM | TGI (SF-295 CNS): > 100 µM | TGI (HCT-116 colon): > 100 µM
